From patent US20230332232A1, “COMPOSITIONS AND METHODS FOR DIAGNOSING AND TREATING A DYSTONIA” (Duke University, priority 2020, published 2023)

Test system: DYT1 knockin (Tor1a^delGAG/+) murine embryonic fibroblasts (MEFs)
Assay: Untargeted LC/MS/MS proteomics of EVs from DYT1 MEFs exposed 24 hours to drug, compared with untreated DYT1 (Het) MEFs
Type: cell-based, mouse
Protocol: Methods for isolation and purification of exosomes and extracellular vesicles (EV) were extensively reviewed. Experiments were performed to arrive at a robust and reproducible protocol. The protocol used herein is that set forth in Théry et al, 2006, which is incorporated by reference for it teaching of this protocol. This protocol involves depleting serum-derived EVs from cell culture media by overnight ultracentrifugation and exchanging media for 1% FBS EV-depleted media. Media is then collected from cells following a 24-hour conditioning period and EVs are isolated by 18-hour ultracentrifugation at 100,000 g (FIG. 1A).
EVs were isolated from media of cultured murine embryonic fibroblasts (MEFs) prepared in-house according to protocols described by Xu 2005 from DYT1 knockin mice (Tor1a^delGAG/+) (Goodchild R E, et al. (2005) Neuron. 48:923-932) and littermate wild-type (WT) controls. The cultured MEFs from the DYT1 mice were exposed for 24 hours to Ritonavir (RTV) while the MEFs from WT mice were exposed to vehicle, ISRIB, or Salubrinal (SAL). The EVs isolated from these WT cells and DYT1 were characterized by untargeted proteomics and RNA-seq to identify differentially expressed proteins and RNAs as candidate biomarkers. Experimenter and Proteomics core staff were blinded to genotype of cell cultures throughout preparation and analysis phases.
Samples were first normalized to 20 μg and spiked with undigested casein at a total of 40 fmol/μg, 80 fmol/μg, or 160 fmol/μg, then reduced with 10 mM dithiolthreitol for 30 minute at 80° C. and alkylated with 20 mM iodoacetamide for 30 minutes at room temperature. Next, the samples were supplemented with a final concentration of 1.2% phosphoric acid and 741 μL of S-Trap (Protifi) binding buffer (90% MeOH/100 mM […]). Proteins were trapped on the S-Trap, digested using 20 ng/μL sequencing grade trypsin (Promega) for 1 hour at 47° C., and eluted using 50 mM TEAB, followed by 0.2% FA, and lastly using 50% CAN/0.2% FA. All samples were then lyophilized to dryness and resuspended in 40 μL 1% TFA/2% acetonitrile containing 12.5 fmol/μL yeast alcohol dehydrogenase (ADH_YEAST). A QC Pool was created from 3 uL of each sample. All QC Pools were run periodically throughout the acquisition period.
Quantitative LC/MS/MS was performed on 2 μL of each sample, using a nanoAcquity UPLC system (Waters Corp) coupled to a Thermo Orbitrap Fusion Lumos high resolution accurate mass tandem mass spectrometer (Thermo) via a nanoelectrospray ionization source. Briefly, the sample was first trapped on a Symmetry C18 20 mm×180 μm trapping column (5 μL/min at 99.9/0.1 v/v water/acetonitrile), after which the analytical separation was performed using a 1.8 μm Acquity HSS T3 C18 75 μm×250 mm column (Waters Corp.) with a 90 minute linear gradient of 5% to 30% acetonitrile with 0.1% formic acid at a flow rate of 400 nanoliters/minute (nL/min) with a column temperature of 55° C. Data collection on the Fusion Lumos mass spectrometer was performed in a data-dependent acquisition (DDA) mode of acquisition with a r=120,000 (@ m/z 200) full MS scan from m/z 375-1500 with a target AGC value of 2e5 ions. MS/MS scans were acquired at Rapid scan rate (Ion Trap) with an AGC target of 5e3 ions and a max injection time of 100 ms. The total cycle time for MS and MS/MS scans was 2 seconds. A 20 second dynamic exclusion was employed to increase depth of coverage. The total analysis cycle time for each sample injection was approximately 2 hours.

Compound: CC(C)c1nc(CN(C)C(=O)N[C@H](C(=O)N[C@@H](Cc2ccccc2)C[C@H](O)[C@H](Cc2ccccc2)NC(=O)OCc2cncs2)C(C)C)cs1 [RTV, Ritonavir]
- Abs Z Score Sum (Geno + RTV) (EV protein Sptan1 (P16546)): 6.02
- Abs Z Score Sum (Geno + RTV) (EV protein Spthn1 Q62261): 6.23
- Abs Z Score Sum (Geno + RTV) (EV protein Srsf7 Q8BL97): 5.72
- Abs Z Score Sum (Geno + RTV) (EV protein Ssb (P32067)): 5.45
- RTV Direction Opposite dE? (EV protein Ssb (P32067)): yes
- Abs Z Score Sum (Geno + RTV) (EV protein Ssbp1 (Q9CYR0)): 12.21
- RTV Direction Opposite dE? (EV protein Ssbp1 (Q9CYR0)): yes
- RTV Direction Opposite dE? (EV protein Svep1 (A2A0A0)): yes
- Abs Z Score Sum (Geno + RTV) (EV protein Tars (Q9D0R2)): 9.50
- Abs Z Score Sum (Geno + RTV) (EV protein Tra2b (P62996)): 6.63
- RTV Direction Opposite dE? (EV protein Tra2b (P62996)): yes
- Abs Z Score Sum (Geno + RTV) (EV protein Ube2n P61089): 8.62
- Abs Z Score Sum (Geno + RTV) (EV protein Upf1 (Q9..)): 9.02
- Abs Z Score Sum (Geno + RTV) (EV protein Usol Q9Z1Z0): 12.14
- Abs Z Score Sum (Geno + RTV) (EV protein Vapa (Q9WV55)): 8.93
- RTV Direction Opposite dE? (EV protein Vapa (Q9WV55)): yes
- Direction Opposite dE? (EV protein: 26S proteasome non-ATPase regulatory subunit 8): yes
- Direction Opposite dE? (EV protein: 60S [?] subunit biogenesis protein [?] homolog): yes
- Direction Opposite dE? (EV protein: 60S ribosomal protein [?]): yes
- Direction Opposite dE? (EV protein: 116 kDa [?] small nuclear ribonucleoprotein component): yes
- Direction Opposite dE? (EV protein: AP-3 complex subunit [?]): yes
- Direction Opposite dE? (EV protein: ATP-dependent RNA helicase [?]): yes
- Direction Opposite dE? (EV protein: Acyl-protein thioesterase 2): yes
- Direction Opposite dE? (EV protein: Alpha-crystallin B chain): yes
- Direction Opposite dE? (EV protein: Anaphase-promoting complex subunit 2): yes
- Direction Opposite dE? (EV protein: Anaphase-promoting complex subunit 4): yes
- Direction Opposite dE? (EV protein: Anaphase-promoting complex subunit 5): yes
- Direction Opposite dE? (EV protein: Calponin-3): yes
- Direction Opposite dE? (EV protein: Cell [?] cycle protein [?] homolog): yes
- Direction Opposite dE? (EV protein: Cell division cycle protein 27 homolog): yes
- Direction Opposite dE? (EV protein: Choline transporter-like protein 1): yes
- Direction Opposite dE? (EV protein: Coiled-coil domain-containing protein 22): yes
- Direction Opposite dE? (EV protein: Complement C1q [?] -related protein 3): yes
- Direction Opposite dE? (EV protein: Cullin-2): yes
- Direction Opposite dE? (EV protein: Cullin-5): yes
- Direction Opposite dE? (EV protein: Cullin-7): yes
- Direction Opposite dE? (EV protein: Cytosolic purine [?] -nucleotidase): yes
- Direction Opposite dE? (EV protein: DNA [?] (r264)): yes
- Direction Opposite dE? (EV protein: DNA [?] licensing factor MCM4): yes
- Direction Opposite dE? (EV protein: DNA ligase 1): yes
- Direction Opposite dE? (EV protein: DNA replication licensing factor MCM5): yes
- Direction Opposite dE? (EV protein: DNA replication licensing factor [?]): yes
- Direction Opposite dE? (EV protein: DNA-directed RNA polymerase II subunit RPB1): yes
- Direction Opposite dE? (EV protein: DNA-directed RNA polymerase II subunit RPB2): yes
- Direction Opposite dE? (EV protein: DNA-directed RNA polymerase II subunit RPB3): yes
- Direction Opposite dE? (EV protein: DNA-directed RNA polymerase [?] subunit RPA2): yes
- Direction Opposite dE? (EV protein: DNA-directed RNA polymerases I, II, and III subunit RPABC3): yes
- Direction Opposite dE? (EV protein: DNA-directed RNA polymerases I, II, and III subunit [?]): yes
- Direction Opposite dE? (EV protein: Developmentally-regulated GTP-binding protein 2): yes
- Direction Opposite dE? (EV protein: Double-strand-break repair protein rad21 homolog): yes
- Direction Opposite dE? (EV protein: Dual specificity mitogen-activated protein kinase kinase 4): yes
- Direction Opposite dE? (EV protein: Dynactin subunit 4): yes
- Direction Opposite dE? (EV protein: E3 ubiquitin-protein ligase [?]): yes
- Direction Opposite dE? (EV protein: Elongin-B): yes
- Direction Opposite dE? (EV protein: Extended synaptotagmin-1): yes
- Direction Opposite dE? (EV protein: Gamma-tubulin complex component 2): yes
- Direction Opposite dE? (EV protein: General vesicular transport factor p115): yes
- Direction Opposite dE? (EV protein: Glucose-6-phosphate 1-dehydrogenase [?]): yes
- Direction Opposite dE? (EV protein: Glutathione S-transferase omega-1): yes
- Direction Opposite dE? (EV protein: Glycosylated lysosomal membrane protein): yes
- Direction Opposite dE? (EV protein: Golgi reassembly-stacking protein 2): yes
- Direction Opposite dE? (EV protein: Heterogeneous nuclear ribonucleoprotein H): yes
- Direction Opposite dE? (EV protein: Histone-arginine methyltransterase CARM1): yes
- Direction Opposite dE? (EV protein: Immunity-related GTPase family M protein 1): yes
- Direction Opposite dE? (EV protein: Importin-7): yes
- Direction Opposite dE? (EV protein: Inositol monophosphate 1): yes
- Direction Opposite dE? (EV protein: Insulin-like growth factor 1 receptor): yes
- Direction Opposite dE? (EV protein: Integrin beta- 3): yes
- Direction Opposite dE? (EV protein: Lupus [?] protein homolog): yes
- Direction Opposite dE? (EV protein: Lysine-specific histone demethylase [?]): yes
- Direction Opposite dE? (EV protein: Mediator [?] RNA polymerase II transcription subunit 23): yes
- Direction Opposite dE? (EV protein: Metastasis-associated protein [?] (r222)): yes
- Direction Opposite dE? (EV protein: Metastasis-associated protein [?] (r261)): yes
- Direction Opposite dE? (EV protein: Microtubule-associated protein [?]): yes
- Direction Opposite dE? (EV protein: N-alpha-acetyltransferase 10): yes
- Direction Opposite dE? (EV protein: Nerine arginine-rich splicing factor [?]): yes
- Direction Opposite dE? (EV protein: Nuclear [?] complex protein [?]): yes
- Direction Opposite dE? (EV protein: Nuclear cap-binding protein subunit 1): yes
- Direction Opposite dE? (EV protein: Nuclear receptor-binding protein): yes
- Direction Opposite dE? (EV protein: NudC domain-containing protein 1): yes
- Direction Opposite dE? (EV protein: Phospholipase D3): yes
- Direction Opposite dE? (EV protein: Phosphoribosyl pyrophosphate synthase-associated protein 1): yes
- Direction Opposite dE? (EV protein: Probable ubiquitin carboxyl-terminal hydrolase [?]): yes
- Direction Opposite dE? (EV protein: Proenkephalin-A): yes
- Direction Opposite dE? (EV protein: Protein O-GlcNAcase): yes
- Direction Opposite dE? (EV protein: Protein RMD5 homolog A): yes
- Direction Opposite dE? (EV protein: Protein [?] 14 homolog): yes
- Direction Opposite dE? (EV protein: Protein [?] (r160)): yes
- Direction Opposite dE? (EV protein: Protein disulfide-isomerase A4): yes
- Direction Opposite dE? (EV protein: RNA-binding protein [?]): yes
- Direction Opposite dE? (EV protein: Ran-binding protein 10): yes
- Direction Opposite dE? (EV protein: Ras-related protein Rab-6A): yes
- Direction Opposite dE? (EV protein: Ribosome biogenesis protein BOP1): yes
- Direction Opposite dE? (EV protein: Ribosome production factor 2 homolog): yes
- Direction Opposite dE? (EV protein: Serine threonine-protein phosphatase 2A 56 kDa regulatory subunit gamma isoform): yes
- Direction Opposite dE? (EV protein: Sorting nexin-1): yes
- Direction Opposite dE? (EV protein: Splicing factor 3B subunit 4): yes
- Direction Opposite dE? (EV protein: Structural maintenance of [?] protein 2): yes
- Direction Opposite dE? (EV protein: Transformer-2 protein homolog beta): yes
- Direction Opposite dE? (EV protein: Trascriptional activator protein [?] -alpha): yes
- Direction Opposite dE? (EV protein: Ubiquitin-conjugating enzyme [?]): yes
- Direction Opposite dE? (EV protein: WD repeat-containing protein [?]): yes
- Direction Opposite dE? (EV protein: [?] (r162)): yes
- Direction Opposite dE? (EV protein: [?] -1 (r154)): yes
- Direction Opposite dE? (EV protein: [?] -1 (r232)): yes
- Direction Opposite dE? (EV protein: [?] -associated membrane protein-associated protein A): yes
- Direction Opposite dE? (EV protein: [?] -promoting complex subunit 1): yes
- Direction Opposite dE? (EV protein: [?] -related [?] -associated actin-dependent regulator [?] chromatin subfamily A member 5): yes
- Direction Opposite dE? (EV protein: [?] complex subunit 2): yes
- Direction Opposite dE? (EV protein: [?] kinase): yes
- Direction Opposite dE? (EV protein: [?] membrane protein 2): yes
- Direction Opposite dE? (EV protein: [?] myosin- [?]): yes
- Direction Opposite dE? (EV protein: [?] repeat-containing protein 5A): yes
- Direction Opposite dE? (EV protein: [?] ubiquitin-protein ligase [?]): yes
- Direction Opposite dE? (EV protein: [?] von Willebrand factor type A, [?] and pentraxin domain-containing protein 1): yes
- Direction Opposite dE? (EV protein: p21-activated protein kinase-interacting protein 1): yes
